From US11311548B2, “Cancer therapy” (Aslan Pharmaceuticals Pte. Ltd., priority 2017, dated 2022)
“Also recorded” adds a separate entry of the source.

Assays:
[1] = test system: Multiple myeloma (MM) cell lines; assay: CellTiter-Glo Luminescent Cell Viability Assay, MM cell lines; type: cell-based, human; details: increasing dose, 48 hours
Procedure: (§1) Multiple myeloma (MM) or chronic myeloid leukaemia (CML) cell lines were seeded at 20,000 cells in 100 μL of medium in 96-well format and treated with increasing dose of ASLAN003 for 48 hours. DMSO was used as control. The CellTiter-Glo® Luminescent Cell Viability Assay, which is a homogeneous method of determining the number of viable cells in culture based on quantitation of the ATP present, i.e. an indicator of metabolically active cells was then performed on the cell lines.

MOLM-14 xenograft = MOLM-14 xenograft model in NSG mice; type: in vivo
Procedure: NSG mice were inoculated with MOLM-14 cells via tail vein injection. Treatment by oral gavage with either ASLAN003 (50 mg/kg QD) or vehicle control was started 3 days past inoculation. 11 mice were treated in the ASLAN003 group and 12 mice were treated in the vehicle control group. The following data is collected at the end of the experiment: […]

AD345 primary MDS cells = assay: FACs analysis of primary MDS cells; type: cell-based; details: 96 hours
Procedure: (§2) AD345 primary MDS cells (refractory cytopenia with multilineage dysplasia, normal karyotype) and AD537 primary MDS bone marrow cells (refractory cytopenia with multilineage dysplasia, karyotype 46, XY, 43.1% myeloid) were treated with ASLAN003 (4000 nM) or DMSO control for 96 hours. A FACs analysis was then performed using Pacific blue dye. The AD537 cells were also stained with Wright-Giemsa and NBT reduction.

[2] = test system: chronic myeloid leukaemia (CML) cell lines; assay: CellTiter-Glo Luminescent Cell Viability Assay, CML cell lines; type: cell-based, human; details: CML cell lines (K562, KCL-22), increasing dose, 48 hours
Procedure: as §1

[3] = test system: AD537 primary MDS bone marrow cells; assay: FACs analysis of primary MDS bone marrow cells; type: cell-based; details: 96 hours
Procedure: as §2

HL-60 = assay: Differentiation of AML cell line (CD11b/CD14 flow cytometry, NBT assay, Wright-Giemsa staining); type: cell-based; details: HL-60, FAB M2
Procedure: (§3) The AML cell lines were dosed with the varying concentrations of ASLAN003 and differentiation of the cell lines were observed via upregulation of CD11b and CD14 on the cell surface via flow cytometry. Differentiation was also determined using the NBT assay and from morphological observations from Wright-Giemsa staining.

MOLM-14 = assay: as above; type: cell-based; details: MOLM-14, FAB M5
Procedure: as §3

THP-1 = assay: as above; type: cell-based; details: THP-1, FAB M5
Procedure: as §3

NB-4 = assay: as above; type: cell-based; details: NB-4, FAB M3
Procedure: as §3

KG-1 = assay: as above; type: cell-based; details: KG-1, FAB M0/M1
Procedure: as §3

COc1cccc(-c2cc(F)c(Nc3ncccc3C(=O)O)c(F)c2)c1 [ASLAN003, 2-(3,5-difluoro-3′-methoxybiphenyl-4-ylamino) nicotinic acid]
Cell viability [1]: has the ability to reduce the viability
Survival of MOLM-14 xenograft mice (MOLM-14 xenograft; 50 mg/kg QD oral gavage, vs vehicle): significantly (p=0.031) prolonged survival
Median survival (MOLM-14 xenograft; MOLM-14 xenograft NSG mice, 50 mg/kg QD oral gavage from 3 days past inoculation, vehicle group 24 days): 27 days
Leukaemic burden (percentage of CD45+ cells) (MOLM-14 xenograft; bone marrow, peripheral blood, spleen and liver, 50 mg/kg QD oral gavage, flow cytometry): significantly decreased leukaemic burden
Differentiation of leukaemic cells (hCD11b+ and hCD14+ cells) (MOLM-14 xenograft; bone marrow, 50 mg/kg QD oral gavage, flow cytometry): significantly induced differentiation
increase in CD11b+CD14+ cells (AD345 primary MDS cells; AD345, 4 μM): about 11%
increase in CD13+CD33+ cells (AD345 primary MDS cells; AD345, 4 μM): about 12.3%
viability at 4 µM (AD345 primary MDS cells; AD345, 4000 nM, DMSO control 93%, read-out: % viable cells): 86.5%
Cell viability [2]: has the ability to reduce the viability
increase in CD13+CD33+ cells ([3]; AD537, 4 μM): about 12.3%
increase in CD14+ cells ([3]; AD537, 4 μM): about 20%
increase of CD11b+ cells ([3]; AD537, 4 μM): ~30%
viability at 4 µM ([3]; Bone marrow cell, AD537, 4000 nM, DMSO control 84.5%, read-out: % viable cells): 73%
ASLAN003 Differentiation (HL-60): did not induce observed differentiation effects; also recorded: Negative
ASLAN003 Differentiation (MOLM-14): myeloid differentiation effects of ASLAN003 were observed; also recorded: Positive
ASLAN003 Differentiation (THP-1): myeloid differentiation effects of ASLAN003 were observed; also recorded: Positive
ASLAN003 Differentiation (NB-4): did not induce observed differentiation effects; also recorded: Negative
ASLAN003 Differentiation (KG-1): myeloid differentiation effects of ASLAN003 were observed; also recorded: Positive
